Results on eight compounds are retold here after patent publication US9440969B2, “Compounds and methods for kinase modulation, and indications therefor” (PLEXXIKON INC., priority 2009, dated 2016).

SMILES strings stand for the structures.

The assay deals with A375 melanoma (B-Raf V600E mutation). Description: A375 cell growth inhibition (ATPlite luminescence). The settings on record: Homo sapiens, A-375, 72 h, A375 cells, incubated 3 days with compound. The class given is cell-based. How it is done: Compounds are assessed in a variety of cell based assays. For example human cell lines with B-Raf V600E mutation (A375 melanoma, SKMEL3 melanoma, and COLO205 colon adenocarcinoma), as well as tumorigenic cell lines with wild-type B-RAF (SW620 colon adenocarcinoma) or with Ras mutations (SKMEL2 melanoma and IPC298 melanoma). Similar assays may be used to assess additional tumorigenic cell lines with Ras mutations, including, but not limited to, M202, M207, M243, M244, M296, S117, HCT116, HCT15, DLD1, MiaPaCa, A549, NCI-H23, NCI-H460, HOP62, MDA-MB231, Hs-578T, HL60, MOLT-4, and CCRF-CEM.
On day 1, cells are counted, then centrifuged in a conical tube for 5 minutes at 1000 rpm. The supernatant is removed and cells are re-suspended as follows: • SW620 (ATCC catalog #CCL-27): resuspend in Leibovitz's L-15 medium, 2 mM L-glutamine, 10% fetal bovine serum to 6×10^4 cells/mL. • A375 (ATCC catalog #CRL-1619): resuspend in Dulbecco's modified Eagle's medium, 4 mM L-glutamine, 4.5 g/L D-glucose, 10% fetal bovine serum to 6×10^4 cells/mL. • COLO205 (ATCC catalog #CCL-222): resuspend in RPMI 1640, 2 mM L-glutamine, 1.5 g/L sodium bicarbonate, 4.5 g/L D-glucose, 10 mM HEPES, 1.0 mM sodium pyruvate, 10% fetal bovine serum to 6×10^4 cells/mL. • SKMEL2 (ATCC catalog #HTB-68): resuspend in Minimum Eagle essential medium, 2 mM L-glutamine, 1.5 g/L sodium bicarbonate, 0.1 mM non-essential amino acids, 1.0 mM sodium pyruvate, 10% fetal bovine serum to 6×10^4 cells/mL. • SKMEL3 (ATCC catalog #HTB-69): resuspend in McCoy's 5A medium, 1.5 mM L-glutamine, 15% fetal bovine serum to 6×10^4 cells/mL. • IPC298 (DSMZ catalog #ACC 251): resuspend in RPMI 1640, 2 mM L-glutamine, 10% fetal bovine serum to 6×10^4 cells/mL.
The cells are plated, 50 μL in each well of a 96-well dish (Corning 3610) and incubated at 37° C. in 5% CO2 overnight, cells plated to a final concentration of cells as follows:
On day 2, compound at a maximum concentration of 5 mM is serially diluted 1:3 (e.g. 10 μL with 30 μL dimethyl sulfoxide) for a total of 8 point titration with DMSO as a control. A 1 μL aliquot of each dilution point and control is added to 249 μL growth media and 50 μL is added to a well containing cells, providing 10 μM compound at the maximum concentration point. The cells are incubated for 3 days at 37° C. in 5% CO2.
On day 5, ATPlite 1 step Luminescence Assay System (Perkin Elmer #6016739) is brought to room temperature along with the cell cultures. ATPlite is added 25 μL to each well, shake for 2 minutes, and the cells are incubated at room temperature for 10 minutes, then luminescence is read on Safire reader. The measured luminescence correlates directly with cell number, such that the reading as a function of compound concentration is used to determine the IC50 value.
It is understood that the results of these assays may vary as assay conditions are varied. Inhibition levels determined under the conditions described herein represent a relative activity for the compounds tested under the specific conditions employed. The cell based assays are likely to show variability due to the complexity of the system and the sensitivity thereof to any changes in the assay conditions. […] Results for compounds that are tested and show substantially no inhibition below the highest tested concentration are represented as “-” in the tables below. In some instances, the compounds were not tested in all of the assays, or assay results were not valid, as indicated by NA in the tables below.
Background: In ATP-based viability assays light output follows the ATP content of the culture.
Regarding `CCCS(=O)(=O)Nc1ccc(F)c(C(=O)c2c[nH]c3ncc(-c4ccc5[nH]ccc5c4)cc23)c1F` [P-0012, Propane-1-sulfonic acid {2,4-difluoro-3-[5-(1H-indol-5-yl)-1H-pyrrolo[2,3-b]pyridine-3-carbonyl]-phenyl}-amide], the IC50 – broadly, the concentration at which inhibition is half-maximal – is below 1 µM.
Take `CCCS(=O)(=O)Nc1ccc(F)c(C(=O)c2c[nH]c3ncc(-c4ccc5c(cnn5C(C)=O)c4)cc23)c1F` [P-0007, propane-1-sulfonic acid {3-[5-(1-acetyl-1H-indazol-5-yl)-1H-pyrrolo[2,3-b]pyridine-3-carbonyl]-2,4-difluoro-phenyl}-amide]: the IC50 was above 1 µM.
For `CCCS(=O)(=O)Nc1ccc(F)c(C(=O)c2c[nH]c3ncc(-c4ccc5[nH]ncc5c4)cc23)c1F` [P-0001, propane-1-sulfonic acid {2,4-difluoro-3-[5-(1H-indazol-5-yl)-1H-pyrrolo[2,3-b]pyridine-3-carbonyl]-phenyl}-amide], the IC50 is below 1 µM.
For `CCCS(=O)(=O)Nc1ccc(F)c(C(=O)c2c[nH]c3ncc(-c4ccc5nn(C)cc5c4)cc23)c1F` [P-0010, Propane-1-sulfonic acid {2,4-difluoro-3-[5-(2-methyl-2H-indazol-5-yl)-1H-pyrrolo[2,3-b]pyridine-3-carbonyl]-phenyl}-amide], the IC50 is below 1 µM.
Regarding `CCCS(=O)(=O)Nc1ccc(F)c(C(=O)c2c[nH]c3ncc(-c4cccc5nn(C)cc45)cc23)c1F` [P-0015, Propane-1-sulfonic acid {2,4-difluoro-3-[5-(2-methyl-2H-indazol-4-yl)-1H-pyrrolo[2,3-b]pyridine-3-carbonyl]-phenyl}-amide], the IC50 is below 1 µM.
Consider `CCCS(=O)(=O)Nc1ccc(F)c(C(=O)c2c[nH]c3ncc(-c4csc(-n5ccnc5C)n4)cc23)c1F` [P-1101, Propane-1-sulfonic acid (2,4-difluoro-3-{5-[2-(2-methyl-imidazol-1-yl)-thiazol-4-yl]-1H-pyrrolo[2,3-b]pyridine-3-carbonyl}-phenyl)-amide], for which the IC50 is below 1 µM.
As to `CNC(=O)n1ncc2cc(-c3cnc4[nH]cc(C(=O)c5c(F)ccc(NS(=O)(=O)c6cc(F)ccc6F)c5F)c4c3)ccc21` [P-0003, 5-{3-[3-(2,5-Difluoro-benzenesulfonylamino)-2,6-difluoro-benzoyl]-1H-pyrrolo[2,3-b]pyridin-5-yl}-indazole-1-carboxylic acid methylamide], the IC50 was below 1 µM.
The result for `CCCS(=O)(=O)Nc1ccc(F)c(C(=O)c2c[nH]c3ncc(-c4ccc5cn(C)nc5c4)cc23)c1F` [P-0011, Propane-1-sulfonic acid {2,4-difluoro-3-[5-(2-methyl-2H-indazol-6-yl)-1H-pyrrolo[2,3-b]pyridine-3-carbonyl]-phenyl}-amide] reads below 1 µM.
